Laboratory results taken from PubChem BioAssay AID1918991 (Molecular Pharmacology Branch, DTP, NCI, 2023).

Tested on: 186277-243-T-J2-PDC complex spheroid growth
Assay: Anticancer human tumor 186277-243-T-J2-PDC patient-derived colon adenocarcinoma cell line growth inhibition [AhR]
Conditions: for IC50: curve of first compound; for viability, T/C: stronger effect = lower value
Outline: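 Complex tumor spheroids co-cultured with HUVEC and human MSC stroma; AhR antagonists tested in combination with standard-of-care and investigational agents. Top concentration at or near clinical Cmax (else 10 microM), half-log dilutions; growth expressed as percent test/control.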
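Further: spheroids exposed to compounds for seven days before the viability read.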
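Wherever viability, T/C is given: luminescent signal used as a stand-in for viable cell amount; 100% = DMSO vehicle control wells.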

**Q.** How did the IC50 (second compound 0.1 µM) turn out when COc1cc(Nc2ncc3c(n2)-c2ccc(Cl)cc2C(c2c(F)cccc2OC)=NC3)ccc1C(=O)O + Cc1cncc(-c2nc(NCCc3c[nH]c4ccccc34)c3ncn(C(C)C)c3n2)c1 was run?
**A.** > 10 µM

**Q.** And the IC50 (second compound 0.316 µM)?
**A.** > 10 µM

**Q.** And the IC50 (second compound 1 µM)?
**A.** > 10 µM

**Q.** And the IC50 (second compound 3.16 µM)?
**A.** > 10 µM

**Q.** What about the IC50 (second compound 10 µM) of the same compound?
**A.** < 0.0316 µM

**Q.** And the viability, T/C (second compound 0.1 µM, first compound 0.0316 µM)?
**A.** 90.2%

**Q.** And the viability, T/C (second compound 0.1 µM, first compound 0.1 µM)?
**A.** 77.9%

**Q.** And the viability, T/C (second compound 0.1 µM, first compound 0.316 µM)?
**A.** 70.2%

**Q.** And the viability, T/C (second compound 0.1 µM, first compound 1 µM)?
**A.** 61.6%

**Q.** What about the viability, T/C (second compound 0.1 µM, first compound 3.16 µM) of the same compound?
**A.** 70.5%

**Q.** And the viability, T/C (second compound 0.1 µM, first compound 10 µM)?
**A.** 74.5%

**Q.** And the viability, T/C (second compound 0.316 µM, first compound 0.0316 µM)?
**A.** 91.9%

**Q.** And the viability, T/C (second compound 0.316 µM, first compound 0.1 µM)?
**A.** 78.6%

**Q.** And the viability, T/C (second compound 0.316 µM, first compound 0.316 µM)?
**A.** 72.3%

**Q.** What about the viability, T/C (second compound 0.316 µM, first compound 1 µM) of the same compound?
**A.** 61.8%

**Q.** And the viability, T/C (second compound 0.316 µM, first compound 3.16 µM)?
**A.** 67.1%

**Q.** And the viability, T/C (second compound 0.316 µM, first compound 10 µM)?
**A.** 72.2%

**Q.** And the viability, T/C (second compound 1 µM, first compound 0.0316 µM)?
**A.** 96.9%

**Q.** And the viability, T/C (second compound 1 µM, first compound 0.1 µM)?
**A.** 75.4%

**Q.** What about the viability, T/C (second compound 1 µM, first compound 0.316 µM) of the same compound?
**A.** 74.4%

**Q.** And the viability, T/C (second compound 1 µM, first compound 1 µM)?
**A.** 67.1%

**Q.** What about the viability, T/C (second compound 1 µM, first compound 3.16 µM) of the same compound?
**A.** 64.3%

**Q.** And the viability, T/C (second compound 1 µM, first compound 10 µM)?
**A.** 70.6%

**Q.** And the viability, T/C (second compound 3.16 µM, first compound 0.0316 µM)?
**A.** 93.2%

**Q.** And the viability, T/C (second compound 3.16 µM, first compound 0.1 µM)?
**A.** 71.4%

**Q.** And the viability, T/C (second compound 3.16 µM, first compound 0.316 µM)?
**A.** 71.9%

**Q.** What about the viability, T/C (second compound 3.16 µM, first compound 1 µM) of the same compound?
**A.** 59.4%

**Q.** And the viability, T/C (second compound 3.16 µM, first compound 3.16 µM)?
**A.** 63%

**Q.** What about the viability, T/C (second compound 3.16 µM, first compound 10 µM) of the same compound?
**A.** 71.5%

**Q.** What about the viability, T/C (second compound 10 µM, first compound 0.0316 µM) of the same compound?
**A.** 37.9%

**Q.** What about the viability, T/C (second compound 10 µM, first compound 0.1 µM) of the same compound?
**A.** 27.4%

**Q.** And the viability, T/C (second compound 10 µM, first compound 0.316 µM)?
**A.** 23.2%

**Q.** What about the viability, T/C (second compound 10 µM, first compound 1 µM) of the same compound?
**A.** 24.6%

**Q.** And the viability, T/C (second compound 10 µM, first compound 3.16 µM)?
**A.** 23.8%

**Q.** What about the viability, T/C (second compound 10 µM, first compound 10 µM) of the same compound?
**A.** 31.6%

**Q.** For CCN(c1cc(-c2ccc(CN3CCOCC3)cc2)cc(C(=O)NCc2c(C)cc(C)[nH]c2=O)c1C)C1CCOCC1 + CC(CO)NC(=O)c1cc(-c2ccc(Cl)cc2)nn(-c2cnn(C)c2)c1=O, which IC50 (second compound 0.1 µM) is on record?
**A.** > 3 µM

**Q.** And the IC50 (second compound 0.316 µM)?
**A.** > 3 µM

**Q.** And the IC50 (second compound 1 µM)?
**A.** > 3 µM

**Q.** And the IC50 (second compound 3.16 µM)?
**A.** > 3 µM

**Q.** What about the IC50 (second compound 10 µM) of the same compound?
**A.** > 3 µM

**Q.** What about the viability, T/C (second compound 0.1 µM, first compound 0.00949 µM) of the same compound?
**A.** 97.8%

**Q.** What about the viability, T/C (second compound 0.1 µM, first compound 0.03 µM) of the same compound?
**A.** 106%

**Q.** What about the viability, T/C (second compound 0.1 µM, first compound 0.0949 µM) of the same compound?
**A.** 82.9%

**Q.** What about the viability, T/C (second compound 0.1 µM, first compound 0.3 µM) of the same compound?
**A.** 94.5%

**Q.** What about the viability, T/C (second compound 0.1 µM, first compound 0.949 µM) of the same compound?
**A.** 102%

**Q.** And the viability, T/C (second compound 0.1 µM, first compound 3 µM)?
**A.** 85.1%

**Q.** What about the viability, T/C (second compound 0.316 µM, first compound 0.00949 µM) of the same compound?
**A.** 109%

**Q.** And the viability, T/C (second compound 0.316 µM, first compound 0.03 µM)?
**A.** 95.8%

**Q.** What about the viability, T/C (second compound 0.316 µM, first compound 0.0949 µM) of the same compound?
**A.** 89.8%

**Q.** And the viability, T/C (second compound 0.316 µM, first compound 0.3 µM)?
**A.** 93.3%

**Q.** And the viability, T/C (second compound 0.316 µM, first compound 0.949 µM)?
**A.** 90.3%

**Q.** What about the viability, T/C (second compound 0.316 µM, first compound 3 µM) of the same compound?
**A.** 91.9%

**Q.** What about the viability, T/C (second compound 1 µM, first compound 0.00949 µM) of the same compound?
**A.** 83.5%

**Q.** What about the viability, T/C (second compound 1 µM, first compound 0.03 µM) of the same compound?
**A.** 90.5%

**Q.** And the viability, T/C (second compound 1 µM, first compound 0.0949 µM)?
**A.** 88.2%

**Q.** And the viability, T/C (second compound 1 µM, first compound 0.3 µM)?
**A.** 87.8%

**Q.** What about the viability, T/C (second compound 1 µM, first compound 0.949 µM) of the same compound?
**A.** 82.2%

**Q.** And the viability, T/C (second compound 1 µM, first compound 3 µM)?
**A.** 101%

**Q.** And the viability, T/C (second compound 3.16 µM, first compound 0.00949 µM)?
**A.** 96.5%

**Q.** And the viability, T/C (second compound 3.16 µM, first compound 0.03 µM)?
**A.** 101%

**Q.** What about the viability, T/C (second compound 3.16 µM, first compound 0.0949 µM) of the same compound?
**A.** 89.4%

**Q.** And the viability, T/C (second compound 3.16 µM, first compound 0.3 µM)?
**A.** 80.7%

**Q.** And the viability, T/C (second compound 3.16 µM, first compound 0.949 µM)?
**A.** 92.3%

**Q.** And the viability, T/C (second compound 3.16 µM, first compound 3 µM)?
**A.** 85.8%

**Q.** And the viability, T/C (second compound 10 µM, first compound 0.00949 µM)?
**A.** 88.5%

**Q.** And the viability, T/C (second compound 10 µM, first compound 0.03 µM)?
**A.** 69.8%

**Q.** And the viability, T/C (second compound 10 µM, first compound 0.0949 µM)?
**A.** 80.5%

**Q.** And the viability, T/C (second compound 10 µM, first compound 0.3 µM)?
**A.** 87.4%

**Q.** What about the viability, T/C (second compound 10 µM, first compound 0.949 µM) of the same compound?
**A.** 73.5%

**Q.** What about the viability, T/C (second compound 10 µM, first compound 3 µM) of the same compound?
**A.** 82.6%
